Data taken from patent US20150133456A1, “FLUOROERGOLINE DERIVATIVES AND USES THEREOF” (MAP PHARMACEUTICALS, INC., priority 2012, published 2015).
pIC50: −log10 of the molar value.

Key:
CCK2 = target: T1, CCK2 (Homo sapiens, UniProt P32239); experiment: Cholecystokinin receptor Aequorin assay; type: cell-based; conditions: antagonism
T1 construct: expressed in transfected cells; host or cells: CHO-AEQ (CHO-K1 with mitochondrial apoaequorin)
Protocol: CHO-K1 cells coexpressing mitochondrial apoaequorin and the recombinant human receptor of interest were grown to mid-log phase in culture media without antibiotics and then detached with PBS-EDTA, centrifuged and resuspended in assay buffer (DMEM/HAM's F12 with HEPES, without phenol red+0.1% BSA, protease free) at a concentration of 1×10^6 cell/mL. Cells were incubated at room temperature for at least 4 hours with coelenterazine h. Reference agonist/antagonist was tested to evaluate the performance of the assay and to determine EC50/IC50.
50 μL of the cell suspension was mixed with 50 μL of test or reference agonist in a 96-well plate. […] For antagonist testing, 100 μL of the reference agonist at its EC80 was injected on the mix of cells and test compound, following an incubation of 15 minutes after the first injection. The resulting emission of light was r recorded using Hamamatsu Functional Drug Screening System 6000 (FDSS 6000) luminometer. To standardize the emission of recorded light (and determine of the “100% signal”) across plates and across different experiments, some wells contained 100 μM digitonin or a saturating concentration of ATP (20 μM).

[1] = test system: Purinergic (P2X1/P2X2/P2X3/P2X4/P2X7); experiment: Purinergic receptor QPatch patch clamp, agonist and antagonist modes; type: cell-based, human; conditions: agonist and antagonist modes at 3 and 10 μM
Protocol: Human recombinant purinergic receptor expressing HEK293 cells were used and receptor activity was evaluated at room temperature using QPatch HT® (Sophion Bioscience A/S, Denmark) automatic parallel patch clamp system. 2CF3-DHE was evaluated in both agonist and antagonist modes at 3 and 10 μM. Each concentration was tested in triplicates.

Calcitonin (AM1/AM2) = Calcitonin (AM1/AM2) cAMP HTRF assays; type: cell-based, human
Protocol: Cells expressing the human recombinant receptor of interest were grown in media without antibiotic and detached by gentle flushing with PBS-EDTA (5 mM EDTA), recovered by centrifugation and resuspended in assay buffer (KRH: 5 mM KCl, 1.25 mM MgSO4, 124 mM NaCl, 25 mM HEPES, 13.3 mM glucose, 1.25 mM KH2PO4, 1.45 mM CaCl2, 0.5 g/L BSA). Dose response curves were performed in parallel with the reference compounds. For agonist tests (96-well plates), 12 μL of cells was mixed with 12 μL of the test compound at increasing concentrations and then incubated for 30 minutes at room temperature. Lysis buffer was added and after a 1 hour incubation, cAMP concentrations was determined according to the manufacturer specification with the HTRF kit. […] Lysis buffer was added and after a 1 hour incubation, cAMP concentrations were determined according to the manufacturer specification, with the HTRF kit.
Cells expressing the human recombinant receptor of interest were grown in media without antibiotic and detached by gentle flushing with PBS-EDTA (5 mM EDTA), recovered by centrifugation and resuspended in assay buffer (KRH: 5 mM KCl, 1.25 mM MgSO4, 124 mM NaCl, 25 mM HEPES, 13.3 mM glucose, 1.25 mM KH2PO4, 1.45 mM CaCl2, 0.5 g/L BSA). […] Lysis buffer was added and after a 1 hour incubation, cAMP concentrations was determined according to the manufacturer specification with the HTRF kit. […]

human α2C receptor = human α2C receptor (Homo sapiens, UniProt P18825); experiment: GTPγS antagonist assay, α2C; type: biochemical; conditions: read-out: IC50, α2C antagonism
[2] = Metabolism in human liver microsomes; conditions: 1 μM, 0.2 mg protein/mL
Protocol: Metabolism of dihydroergotamine (DHE) and 2-CF3 DHE was evaluated in human liver microsomes. DHE mesylate and 2-CF3 DHE mesylate (1 μM each) were incubated separately with human liver microsomes (0.2 mg protein/mL) in triplicate at 37° C. in 0.2 mL (final volume) incubation buffer (50 mM potassium phosphate buffer, pH 7.4, 3 mM MgCl2 and 1 mM EDTA, pH7.4) with or without cofactor, NADPH-generating system. The NADPH-generating system consisted of 1 mM NADP, pH 7.4, 5 mM glucose-6-phosphate, pH 7.4 and 1 unit/mL glucose-6-phosphate dehydrogenase. DHE was added to the incubation mixtures in water. 2-CF3-DHE was added to incubation mixtures in 50:50 (v:v) acetonitrile:water. A low level of acetonitrile in the incubation was maintained to avoid any solvent effects on enzyme activity (typically at 0.5% or lower). Reactions were initiated by the addition of the NADPH-generating system and were terminated at 0, 15, 30 and 60 minutes after initiation by the addition of […], of stop reagent (acetonitrile) containing two internal standards (4′-hydroxydiclofenac-d4 and 1′-hydroxymidazolam-d4, 200 and 50 ng/mL in the final stopped incubation, respectively). The samples were then centrifuged and the supernatant fractions were analyzed by LC/MS/MS to quantify the formation of 8′-OH-DHE (metabolite) in the DHE samples and DHE and 8′-OH-DHE in the 2-CF3-DHE samples.

Chain of human α2C receptor (P18825 whole entry): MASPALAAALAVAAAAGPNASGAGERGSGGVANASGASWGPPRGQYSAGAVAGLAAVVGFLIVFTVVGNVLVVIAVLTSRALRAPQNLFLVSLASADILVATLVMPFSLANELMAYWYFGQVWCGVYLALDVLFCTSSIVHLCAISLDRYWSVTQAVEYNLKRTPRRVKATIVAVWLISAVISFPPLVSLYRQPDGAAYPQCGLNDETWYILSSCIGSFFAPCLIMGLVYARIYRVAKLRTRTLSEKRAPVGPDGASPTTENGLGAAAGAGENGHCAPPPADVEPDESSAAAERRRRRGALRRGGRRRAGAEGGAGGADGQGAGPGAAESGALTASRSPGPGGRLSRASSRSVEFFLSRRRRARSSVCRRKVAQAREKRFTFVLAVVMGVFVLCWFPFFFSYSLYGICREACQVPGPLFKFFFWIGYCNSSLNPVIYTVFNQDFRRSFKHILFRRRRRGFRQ
T1 sequence (P32239 whole entry): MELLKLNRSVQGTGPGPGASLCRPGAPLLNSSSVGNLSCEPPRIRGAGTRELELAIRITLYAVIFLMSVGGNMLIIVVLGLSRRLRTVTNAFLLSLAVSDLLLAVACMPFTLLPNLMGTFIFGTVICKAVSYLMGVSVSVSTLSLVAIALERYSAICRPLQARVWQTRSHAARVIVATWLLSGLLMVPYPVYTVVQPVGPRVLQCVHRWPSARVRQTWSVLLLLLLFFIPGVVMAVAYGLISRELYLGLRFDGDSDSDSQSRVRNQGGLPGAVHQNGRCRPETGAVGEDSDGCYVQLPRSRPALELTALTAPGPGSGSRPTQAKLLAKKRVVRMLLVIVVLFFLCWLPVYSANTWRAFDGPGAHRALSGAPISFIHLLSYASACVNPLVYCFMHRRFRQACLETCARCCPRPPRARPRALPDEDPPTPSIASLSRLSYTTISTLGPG

SMILES: CN1C[C@H](C(=O)N[C@]2(C)O[C@@]3(O)[C@@H]4CCCN4C(=O)[C@H](Cc4ccccc4)N3C2=O)CC2c3cccc4[nH]c(C(F)(F)F)c(c34)CC21 (stereo partly drawn) [2-CF3-dihydroergotamine]
- pIC50 (CCK2): < 5.00
- Activity (Agonism: EC50; Antagonism: IC50) [1]: Inactive
- Activity (Agonism: EC50; Antagonism: IC50) (Calcitonin (AM1/AM2)): Inactive
- pIC50 (human α2C receptor): 5.56
- metabolism by human liver microsomes in the presence of NADPH ([2]; 0 to 60 minutes): extensively metabolized
- intrinsic clearance, slower than that of DHE ([2]; with NADPH): about 85%
